The source of these data is publication PMC10669037, “CRISPR/Cas12a Collateral Cleavage Activity for Sensitive 3′–5′ Exonuclease Assay” (Biosensors, 2023).

SMILES strings stand for the structures.

This assay concerns T1, Exonuclease III (Exo III).
T1 construct: gene xthA; commercial enzyme from New England BioLabs
Nature of the assay: hairpin DNA digestion, coupled to Cas12a collateral cleavage of fluorescent reporter. The assay is classed as biochemical. The note with it: acts by metal chelation, not a specific binder; Exo III 5 U/mL, 10 min preincubation, hairpin probe substrate, magnesium acetate buffer pH 7.9, 37 °C; EDTA carried into the Cas12a read-out step.

Broadly, the IC50 is the midpoint of a concentration-inhibition curve. Take `O=C(O)CN(CCN(CC(=O)O)CC(=O)O)CC(=O)O` [EDTA]: the IC50 was 6.34 mM.
